Values after ≈ are worked out from the molar mass of the structure shown.
How the values were obtained:
Acinetobacter baumannii [1] = test: Antibacterial activity against Acinetobacter baumannii A892 assessed as mutant prevention concentration after overnight incubation; type: functional
Acinetobacter baumannii [2] = test: Antibacterial activity against Acinetobacter baumannii A867 assessed as mutant prevention concentration after overnight incubation; type: functional
Pseudomonas aeruginosa [3] = test: Antibacterial activity against Pseudomonas aeruginosa P356 incubated up to 7 days by agar dilution method; type: functional; details: P356, 168 h
Pseudomonas aeruginosa [4] = test: Antibacterial activity against Pseudomonas aeruginosa P340 incubated up to 7 days by agar dilution method; type: functional; details: P340, 168 h
Klebsiella pneumoniae [5] = test: Antibacterial activity against beta-lactamase-positive ESBL-negative Klebsiella pneumoniae E473 incubated up to 7 days by agar dilution method; type: functional; details: E473, 168 h
Klebsiella pneumoniae [6] = test: Antibacterial activity against beta-lactamase-positive ESBL-negative Klebsiella pneumoniae E474 incubated up to 7 days by agar dilution method; type: functional; details: E474, 168 h
Pseudomonas aeruginosa [7] = test: Antibacterial activity against Pseudomonas aeruginosa P365 incubated up to 7 days by agar dilution method; type: functional; details: P365, 168 h
Pseudomonas aeruginosa [8] = test: Antibacterial activity against Pseudomonas aeruginosa P332 incubated up to 7 days by agar dilution method; type: functional; details: P332, 168 h
Acinetobacter baumannii [9] = test: Antibacterial activity against Acinetobacter baumannii A911 incubated for 24 h by agar dilution method; details: A911, 24 h
Acinetobacter baumannii [10] = test: Antibacterial activity against Acinetobacter baumannii A867 incubated for 24 h by agar dilution method; details: A867, 24 h
Acinetobacter baumannii [11] = test: Antibacterial activity against Acinetobacter baumannii A885 incubated up to 7 days by agar dilution method; type: functional; details: A885, 168 h
Acinetobacter baumannii [12] = test: Antibacterial activity against Acinetobacter baumannii A848 incubated up to 7 days by agar dilution method; type: functional; details: A848, 168 h
Pseudomonas aeruginosa [13] = test: Antibacterial activity against Pseudomonas aeruginosa P352 incubated up to 7 days by agar dilution method; type: functional; details: P352, 168 h
Acinetobacter baumannii [14] = test: Antibacterial activity against Acinetobacter baumannii A931 incubated for 24 hrs by agar dilution method; details: A931, 24 h
Acinetobacter baumannii [15] = test: Antibacterial activity against Acinetobacter baumannii A865 incubated for 24 h by agar dilution method; details: A865, 24 h
Acinetobacter baumannii [16] = test: Antibacterial activity against Acinetobacter baumannii A903 incubated up to 7 days by agar dilution method; type: functional; details: A903, 168 h
Pseudomonas aeruginosa [17] = test: Antibacterial activity against Pseudomonas aeruginosa P322 incubated up to 7 days by agar dilution method; type: functional; details: P322, 168 h
Pseudomonas aeruginosa [18] = test: Antibacterial activity against Pseudomonas aeruginosa P320 incubated up to 7 days by agar dilution method; type: functional; details: P320, 168 h
Acinetobacter baumannii [19] = test: Antibacterial activity against Acinetobacter baumannii A851 incubated for 24 h by agar dilution method; details: A851, 24 h
Acinetobacter baumannii [20] = test: Antibacterial activity against Acinetobacter baumannii A901 incubated up to 7 days by agar dilution method; type: functional; details: A901, 168 h
Pseudomonas aeruginosa [21] = test: Antibacterial activity against Pseudomonas aeruginosa P334 incubated up to 7 days by agar dilution method; type: functional; details: P334, 168 h
Acinetobacter baumannii [22] = test: Antibacterial activity against Acinetobacter baumannii A898 incubated for 24 hrs by agar dilution method; details: A898, 24 h
Pseudomonas aeruginosa [23] = test: Antibacterial activity against Pseudomonas aeruginosa P337 incubated up to 7 days by agar dilution method; type: functional; details: P337, 168 h
Pseudomonas aeruginosa [24] = test: Antibacterial activity against Pseudomonas aeruginosa P349 incubated up to 7 days by agar dilution method; type: functional; details: P349, 168 h
Acinetobacter baumannii [25] = test: Antibacterial activity against Acinetobacter baumannii A912 incubated for 24 h by agar dilution method; details: A912, 24 h
Pseudomonas aeruginosa [26] = test: Antibacterial activity against Pseudomonas aeruginosa P327 incubated up to 7 days by agar dilution method; type: functional; details: P327, 168 h

In the case of `C[C@@H](O)[C@H]1C(=O)N2C(C(=O)O)=C(SCCNC=N)C[C@H]12` [IMIPENEM ANHYDROUS], the MPC (Acinetobacter baumannii [1]) was 64 µg/mL and the MPC (Acinetobacter baumannii [2]) was 64 µg/mL.

With `C[C@@H](O)[C@H]1C(=O)N2C(C(=O)O)=C(S[C@@H]3CN[C@H](C(=O)N(C)C)C3)[C@H](C)[C@H]12` [MEROPENEM] the MIC (Pseudomonas aeruginosa [3]) was 0.5 µg/mL (≈ 1.3 µM), the MIC (Pseudomonas aeruginosa [4]) was 0.25 µg/mL (≈ 0.652 µM) and the MIC (Klebsiella pneumoniae [5]) was 2 µg/mL (≈ 5.22 µM). The MIC (Klebsiella pneumoniae [6]) was 4 µg/mL (≈ 10.4 µM), the MIC (Pseudomonas aeruginosa [7]) was 1 µg/mL (≈ 2.61 µM) and the MIC (Pseudomonas aeruginosa [8]) was 1 µg/mL (≈ 2.61 µM). For the same compound, the MIC (Acinetobacter baumannii [9]) was 4 µg/mL (≈ 10.4 µM), the MIC (Acinetobacter baumannii [10]) was 8 µg/mL (≈ 20.9 µM) and the MIC (Acinetobacter baumannii [11]) was 2 µg/mL (≈ 5.22 µM). The MIC (Acinetobacter baumannii [12]) was 8 µg/mL (≈ 20.9 µM), the MIC (Pseudomonas aeruginosa [13]) was 2 µg/mL (≈ 5.22 µM) and the MIC (Acinetobacter baumannii [14]) was 1 µg/mL (≈ 2.61 µM). For the same compound, the MIC (Acinetobacter baumannii [15]) was 8 µg/mL (≈ 20.9 µM), the MIC (Acinetobacter baumannii [16]) was 2 µg/mL (≈ 5.22 µM) and the MIC (Pseudomonas aeruginosa [17]) was 2 µg/mL (≈ 5.22 µM). It also gave an MIC (Pseudomonas aeruginosa [18]) of 0.5 µg/mL (≈ 1.3 µM), an MIC (Acinetobacter baumannii [19]) of 4 µg/mL (≈ 10.4 µM) and an MIC (Acinetobacter baumannii [20]) of 2 µg/mL (≈ 5.22 µM). It also gave an MIC (Pseudomonas aeruginosa [21]) of 0.25 µg/mL (≈ 0.652 µM), an MIC (Acinetobacter baumannii [22]) of 2 µg/mL (≈ 5.22 µM) and an MIC (Pseudomonas aeruginosa [23]) of 1 µg/mL (≈ 2.61 µM). It also gave an MIC (Pseudomonas aeruginosa [24]) of 1 µg/mL (≈ 2.61 µM), an MIC (Acinetobacter baumannii [25]) of 2 µg/mL (≈ 5.22 µM) and an MIC (Pseudomonas aeruginosa [26]) of 0.25 µg/mL (≈ 0.652 µM).

Reference: ChEMBL document CHEMBL1255475, “Mutant prevention concentrations of four carbapenems against gram-negative rods” (2010)
